From PubChem BioAssay (NCI)
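48-hour exposure; five concentrations; linearly interpolated endpoints. The concentration for 50% growth inhibition is given as GI50. Definition used: TGI = concentration required for complete inhibition of growth.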

Legend:
Test in all cases: NCI anticancer screen, dose series, 48 h
COLO 205 colon = system: COLO 205 colon
NCI/ADR-RES ovarian = system: NCI/ADR-RES ovarian
A549 NSCLC = system: A549 NSCLC
BT-549 breast = system: BT-549 breast
SK-MEL-5 melanoma = system: SK-MEL-5 melanoma
HL-60(TB) leukemia = system: HL-60(TB) leukemia
U251 CNS = system: U251 CNS
KM12 colon = system: KM12 colon
HCC-2998 colon = system: HCC-2998 colon
SNB-19 CNS = system: SNB-19 CNS
786-0 renal = system: 786-0 renal
OVCAR-5 ovarian = system: OVCAR-5 ovarian
UACC-257 melanoma = system: UACC-257 melanoma
A498 renal = system: A498 renal
RXF 393 renal = system: RXF 393 renal
SF-268 CNS = system: SF-268 CNS
SNB-75 CNS = system: SNB-75 CNS
NCI-H23 lung = system: NCI-H23 lung
SF-539 CNS = system: SF-539 CNS
ACHN renal = system: ACHN renal
UO-31 renal = system: UO-31 renal
SW-620 colon = system: SW-620 colon
SR leukemia = system: SR leukemia
OVCAR-8 ovarian = system: OVCAR-8 ovarian
SK-MEL-2 melanoma = system: SK-MEL-2 melanoma
T-47D breast = system: T-47D breast
LOX IMVI melanoma = system: LOX IMVI melanoma
HCT-15 colon = system: HCT-15 colon

SMILES: O=C(CCCCCCC(=O)N/N=C/c1ccc(N(c2ccccc2)c2ccccc2)cc1)NO
- GI50 (COLO 205 colon): 2.02 µM
- TGI (COLO 205 colon): 4.63 µM
- GI50 (NCI/ADR-RES ovarian): 3.07 µM
- TGI (NCI/ADR-RES ovarian): 20.5 µM
- GI50 (A549 NSCLC): 2.99 µM
- TGI (A549 NSCLC): 9.51 µM
- GI50 (BT-549 breast): 2.38 µM
- TGI (BT-549 breast): 11.5 µM
- GI50 (SK-MEL-5 melanoma): 1.76 µM
- TGI (SK-MEL-5 melanoma): 3.63 µM
- GI50 (HL-60(TB) leukemia): 2.64 µM
- TGI (HL-60(TB) leukemia): 7.57 µM
- GI50 (U251 CNS): 1.75 µM
- TGI (U251 CNS): 4.46 µM
- GI50 (KM12 colon): 2.72 µM
- TGI (KM12 colon): 13.1 µM
- GI50 (HCC-2998 colon): 2.87 µM
- TGI (HCC-2998 colon): 11.2 µM
- GI50 (SNB-19 CNS): 3.35 µM
- TGI (SNB-19 CNS): 15.9 µM
- GI50 (786-0 renal): 1.58 µM
- TGI (786-0 renal): 3.7 µM
- GI50 (OVCAR-5 ovarian): 0.417 µM
- TGI (OVCAR-5 ovarian): 2.94 µM
- GI50 (UACC-257 melanoma): 0.39 µM
- TGI (UACC-257 melanoma): 1.57 µM
- GI50 (A498 renal): 0.357 µM
- TGI (A498 renal): 1.62 µM
- GI50 (RXF 393 renal): 2.27 µM
- TGI (RXF 393 renal): 7.06 µM
- GI50 (SF-268 CNS): 3.27 µM
- TGI (SF-268 CNS): 13.6 µM
- GI50 (SNB-75 CNS): 2.04 µM
- TGI (SNB-75 CNS): 14.2 µM
- GI50 (NCI-H23 lung): 2.41 µM
- TGI (NCI-H23 lung): 10.7 µM
- GI50 (SF-539 CNS): 2.17 µM
- TGI (SF-539 CNS): 4.95 µM
- GI50 (ACHN renal): 2.28 µM
- TGI (ACHN renal): 7.39 µM
- GI50 (UO-31 renal): 1.44 µM
- TGI (UO-31 renal): 4.4 µM
- GI50 (SW-620 colon): 2.49 µM
- TGI (SW-620 colon): 14.3 µM
- GI50 (SR leukemia): 2.38 µM
- TGI (SR leukemia): 14.1 µM
- GI50 (OVCAR-8 ovarian): 3.02 µM
- TGI (OVCAR-8 ovarian): 20.8 µM
- GI50 (SK-MEL-2 melanoma): 2.71 µM
- TGI (SK-MEL-2 melanoma): 7.81 µM
- GI50 (T-47D breast): 0.309 µM
- TGI (T-47D breast): 2.41 µM
- GI50 (LOX IMVI melanoma): 0.432 µM
- TGI (LOX IMVI melanoma): 1.61 µM
- GI50 (HCT-15 colon): 2.69 µM
